Experimental findings from the NIST ThermoML archive (doi:10.1016/j.tca.2006.02.034) are described below.

For the series the following is noted: Crystal; Adiabatic calorimetry.

± gives the expanded uncertainty stated by the source.

Consider `CCCC[n+]1ccn(C)c1.O=S(=O)([N-]S(=O)(=O)C(F)(F)F)C(F)(F)F`, for which the Triple point temperature is listed as 270.22 ± 0.05 K.
